The source of these data is patent US20170029839A1, “METHOD FOR IMPROVING CROP PRODUCTIVITY” (priority 2013, published 2017).

Assay [1] has as its system SDG8i promoter-driven GUS reporter (prSDG8i-GUS). Kind of assay: Activation of GUS expression driven by prSDG8i in onion epidermal peels. To be noted: onion peels containing prSDG8i-GUS construct by itself, MJ added to suspension. Format: cell-based. The text has this:
The promoter sequence (1660 nt) of SDG8i was placed upstream of the GUS reporter gene in a construct designated prSDG8i-GUS. This construct was transiently co-transformed into onion epidermal peels along with the pMDC32:7y or pMDC32:10y constructs which contained either SDG10y or SDG7y under the transcriptional regulation of the CaMV 35S promoter which is constitutively active in onion cells. The formation of a blue precipitate indicates activation of the SDG8i promoter-driven GUS reporter gene by the SDG10y or SDG7y transcription factor constructs.
Agrobacterium-mediated transient transformation was achieved by immersing onion peels in the Agrobacterium suspensions containing these constructs in 10 mM MES buffer (pH 5.5) and 200 μM acetosyringone at 28° C. in the dark for 2/3 days. A 35S:GUS control construct was included in these experiments and the hormone methyl jasmonate (MJ) was also added to some suspensions. After 2 days, the onion peels were soaked in a GUS staining solution and left at 28° C. in the dark. The onion peels were examined every 2 hours to monitor the formation of blue precipitate.

Assay [2] deals with Orobanche seeds. Kind of assay: Orobanche germination assay. Format: in vivo. The note with it: 0.6 ml aqueous solution 0.0001 mg/1, 7 days at 18-20° C. in the dark; seeds with emerged radicle; water control 11%. The protocol: Orobanche seeds were surface sterilised with 2% sodium hypochlorite containing 0.02% (v/v) of polysorbate 20 surfactant (Tween 20™; Sigma-Aldrich Co LLC, St Louis, Mo., United States of America) for 5 min then rinsed (5×) with sterile ddH2O and dried for 30 min in a laminar air flow cabinet. Subsequently, between 50 and 100 seeds were spread on a sterile […] glass fibre disk and placed in petri dishes (9 cm diameter) lined with filter paper wetted with 3 mL of ddH2O. 1 ml of gibberellic acid (GA3) (30 mg/L) was applied to the seeds and the petri dishes then sealed with parafilm and incubated at 18-20° C. in the dark for preconditioning. After 7 days, surface-sterilised seeds of Arabidopsis W/T, SDG8i transgenics, sorghum and & stapfianus were placed on 5 cm glass microfiber disks and incubated on ¼ MS media with 0.5% sugar and 0.8% agar. For controls, 0.6 ml aqueous solution of synthetic strigolactone analog GR24 (Chiralix B.V., Toernooiveld 1006525 EC Nijmegen, The Netherlands) (0.0001 mg/1) or sterile water was applied to petri dishes with preconditioned Orobanche seeds. The plates were then resealed with parafilm and wrapped with foil and incubated at 18-20° C. for 7 days for germination. Orobanche seed germination was determined under a stereoscopic microscope by counting the number of seeds having an emerged radicle.

The subject of assay [3] is enzyme encoded by SDG8i (SL-UGT). Nature of the assay: UGT enzyme assay (coupled pyruvate kinase/lactate dehydrogenase, NADH absorbance at 340 nm) with N. benthamiana leaf protein extract expressing SDG8i. It is filed as biochemical, Sporobolus stapfianus. On the procedure: UGT was produced in N. benthamiana leaf tissue by transient transfection using a viral-based MagnICON vector system (Icon Genetics GmbH, Halle/Salle, Germany).
Briefly, the UGT coding sequence was amplified from the SDG8i cDNA (Le et al., 2007) and ligated into the MagnICON plasmid. The plasmid was then cultured in Escherichia coli DH5α (ATCC Catalog No 53868) and electroporated into Agrobacterium tumefaciens LBA4404). Subsequently, Nicotiana benthamiana leaves were covered in aluminium foil for 3 days before being co-infiltrated with the plasmid and the apoplast-targeting and intergrase modules of the MagnICON system (Marillonnet et al. 2005). Leaves were then harvested 5 days after the co-infiltration and homogenised in ice-cold protein extraction buffer. Following removal of the insoluble material by centrifugation at 13,000 rpm at 4° C. for 5 minutes, protein assays were carried out with Bio-Rad Protein Assay Dye (Bio-Rad Laboratories Inc, Hercules, Calif., United States of America) using bovine serum albumin (BSA) as reference. Protein extracts were analysed by SDS-PAGE using the standard methods described by Sambrook et al. (1989).
UGT activity was measured using a coupled assay with pyruvate kinase and lactate dehydrogenase with the reaction rate monitored by the change in NADH absorbance at 340 nm (Jackson et al. 2001). Activity in millikatals kg^−1 was calculated using the extinction coefficient […] for NADH. The background activity of the extracts, monitored by the measurement of the rate without substrate addition, was subtracted from the reaction rate.
To investigate the catalytic function of the enzyme encoded by the SDG8i cDNA, the glucosyltransferase activity of N. benthamiana leaf protein extracts infiltrated with a CaMV 35S promoter driven SDG8i construct was tested against a number of substrates and compared with activity in extracts infiltrated with a vector-only control. The assay utilised a linked enzymic reaction as described in the Materials and Methods. […]

In the case of `CC/C=C\CC1C(=O)CCC1CC(=O)OC` (centres unmarked) [MJ, methyl jasmonate], the GUS activity entry in assay [1] is “elevated”.
In turn, `CC1=CC(O/C=C2/C(=O)OC3c4ccccc4CC23)OC1=O` (centres unmarked) [GR24] came in with an Orobanche seed germination in assay [2] of 95%. Besides, in assay [3] (GR24 as substrate of SDG8i extract, FIG. 1B), the Km (commonly the concentration of substrate that gives half-maximal velocity) was 349 µM. Besides, the Vmax in assay [3] (GR24 as substrate of SDG8i extract, FIG. 1B, method: activity calculated in millikatals kg^-1) is reported as 5.67. In addition, the glycosylation activity entry in assay [3] (SDG8i extract versus vector-only control, background endogenous NADH oxidase subtracted, FIG. 1A) was “substantial glycosylation activity”.
